Literature values, collected in US8937081B2, “Statin bioavailability enhancement delivery composition” (PruGen IP Holdings, Inc., priority 2011, dated 2015).

How the values were obtained:
hepatocytes = settings: in hepatocytes
[1] = among the marketed statins

| SMILES | IC50 (hepatocytes) | percentage of serious adverse effects [1] |
| --- | --- | --- |
| CC(C)c1nc(N(C)S(C)(=O)=O)nc(-c2ccc(F)cc2)c1/C=C/[C@@H](O)C[C@@H](O)CC(=O)O [rosuvastatin] | low |  |
| COCc1c(C(C)C)nc(C(C)C)c(/C=C/[C@@H](O)C[C@@H](O)CC(=O)O)c1-c1ccc(F)cc1 [cerivastatin] |  | largest percentage of serious adverse effects |
